Assays:
PBMC = test: Cell viability, CellTiter Glo Assay, PBMC; assay type: cell-based; settings: peripheral blood monocytes (proliferating normal cells), read-out: Effect of AOH39 on Cell Viability IC50
Description: (§1) The IC50's listed in Table 1 and in FIGS. 8 and 9 were determined by monitoring cell proliferation in the absence or presence of increasing concentrations of AOH39 using the Cell-Titer Glo Assay, (Promega Inc., Madison, Wis.) which monitors the energy status of the entire culture and the viability of the cell population. (https://www.promega.com/products/cell-health-and-metabolismicell-viability-assaysicelltiter_glo-luminescent-cell-viability-assay/). As the population doubles so does the quantum yield from the assay. HCC1937 is a BRCA1 defective Breast Cancer cell line; MCF7 is an ER+ breast cancer cell line; MDA-MB231 and MDA-MB468 are ER-aggressive breast cancer cell lines. SK-N-AS, SK-N-BE2c, SK-N-DZ lines are neuroblastoma cell lines and LAN5 cells are a cell line derived from a neuroblastoma bone metastasis; MCF10A is a non-malignant but immortalized breast cell line. PBMC—peripheral blood monocytes (proliferating normal cells), and MCF10A is an immortalized but non-malignant breast epithelial cell line. Referring to FIGS. 8 and 9, the X-axis is the Log of AOH39 concentration in uM, where 0 corresponds to 1 uM and 1 corresponds to 10 uM. The Y-Axis indicates cell proliferation as a percentage of identical cell cultures grown in PBS/DMSO without added AOH39.

MCF10A = test: Cell viability, CellTiter Glo Assay, MCF10A; assay type: cell-based; settings: Homo sapiens, MCF-10A, non-malignant but immortalized breast cell line, read-out: Effect of AOH39 on Cell Viability IC50
Description: as §1

MCF7 = test: Cell viability, CellTiter Glo Assay, MCF7; assay type: cell-based; settings: Homo sapiens; MCF7, ER+ breast cancer cell line; read-out: Effect of AOH39 on Cell Viability IC50
Description: as §1

HCC1937 = test: Cell viability, CellTiter Glo Assay, HCC1937; assay type: cell-based; settings: Homo sapiens; HCC1937, BRCA1 defective breast cancer cell line; read-out: Effect of AOH39 on Cell Viability IC50
Description: as §1

MDA-MB468 = test: Cell viability, CellTiter Glo Assay, MDA-MB468; assay type: cell-based; settings: Homo sapiens, MDA-MB-468; MDA-MB468, ER- breast cancer cell line; read-out: Effect of AOH39 on Cell Viability IC50
Description: as §1

MDA-MB231 = test: Cell viability, CellTiter Glo Assay, MDA-MB231; assay type: cell-based; settings: Homo sapiens, MDA-MB-231; MDA-MB231, ER- breast cancer cell line; read-out: Effect of AOH39 on Cell Viability IC50
Description: as §1

SK-N-AS = test: Cell viability, CellTiter Glo Assay, SK-N-AS; assay type: cell-based; settings: Homo sapiens, neuroblastoma cell line, read-out: Effect of AOH39 on Cell Viability IC50
Description: as §1

SK-N-BE2c = test: Cell viability, CellTiter Glo Assay, SK-N-BE2c; assay type: cell-based; settings: SK-N-BE(2)-C, neuroblastoma cell line, read-out: Effect of AOH39 on Cell Viability IC50
Description: as §1

SK-N-DZ = test: Cell viability, CellTiter Glo Assay, SK-N-DZ; assay type: cell-based; settings: Homo sapiens, neuroblastoma cell line, read-out: Effect of AOH39 on Cell Viability IC50
Description: as §1

LAN5 = test: Cell viability, CellTiter Glo Assay, LAN5; assay type: cell-based; settings: LA-N-5; LAN5, neuroblastoma bone metastasis cell line; read-out: Effect of AOH39 on Cell Viability IC50
Description: as §1

[1] = test system: MCF7 Cell SV40 origin-dependent In Vitro DNA replication; test: T-antigen and SV40 origin dependent in vitro DNA replication reaction; assay type: biochemical; settings: for Inhibition of in vitro DNA replication: relative to reaction containing Tris-HCl/DMSO
Description: In vitro DNA replication activity was determined using the standard T-antigen and SV40 origin dependent in vitro DNA replication reaction (L. Malkas et al., Biochemistry 29: 6362-6374 (1990) and percent inhibition was determined relative to a reaction containing Tris-HCl/DMSO in place of AOH39.) The reaction was started with the addition of T-antigen to the reaction mixture. Results are shown in FIG. 3, with AOH39 inhibiting replication by roughly 50% at concentrations of 5 μM and by more than 75% at 10 μM.
(§2) There is a precise correlation between the ability of AOH39 to inhibit the SV40 origin dependent in vitro DNA replication process and MCF7 cell viability, FIG. 4. Cell viability was determined colorimetrically using the MTT assay following a 72 hour incubation with 10 μM of AOH39. In vitro DNA replication activity was determined using the standard T-antigen and SV40 origin dependent in vitro DNA replication reaction (L. Malkas et al., Biochemistry, 29, 6362-6374 (1990)), and percent inhibition was determined relative to a reaction containing Tris-HCl/DMSO in place of AOH39 for the activity assay, and PBS/DMSO for the viability assay.

MCF7 cells = test: MCF7 cell viability, MTT assay; assay type: cell-based; settings: 72 hour incubation with 10 μM
Description: as §2

IC50 (MCF7): 3.1 µM | IC50 (HCC1937): 2200 nM | IC50 (MDA-MB468): 3.3 µM | IC50 (MDA-MB231): 1000 nM | IC50 (SK-N-AS): 2200 nM | IC50 (SK-N-BE2c): 2900 nM | IC50 (SK-N-DZ): 1700 nM
SMILES: O=C(CNC(=O)c1cccc2ccccc12)Nc1ccccc1Cc1ccccc1 [AOH39]
IC50 (PBMC): 13.2 µM | IC50 (MCF10A): 6.2 µM | IC50 (LAN5): 1200 nM | Inhibition of in vitro DNA replication ([1]; 5 μM): roughly 50% | Inhibition of in vitro DNA replication ([1]; 10 μM): more than 75% | Inhibition of DNA replication (in words) ([1]; relative to control replication reaction containing PBS/DMSO in place of compound): inhibited DNA replication significantly | MCF7 cell viability (in words) (MCF7 cells): significant decrease in MCF7 cell viability

— patent publication US10420840B2, “Anticancer therapeutic agents” (RLL, LLC, priority 2015, dated 2019)
